Series [1] is described as follows: Plasma stability assay via LC-MS/MS, rat plasma. The class given is in vitro ADME. As to conditions: read-out: t1/2 in rat plasma (Table S19) (converted). On the procedure:
(§1) Building on our observation that rotamer control in the steric series can be modulated by enzymatic stabilization or activation, we next evaluated whether this effect was species dependent. To investigate this, we performed comparative stability studies by incubating select prodrugs (20a, 20b, 20l and 20t; Figure ) in mouse and rat plasma – two of the most commonly used preclinical species in drug development. This approach allowed us to assess the potential influence of species-specific enzymes on rotamer equilibria and, by extension, prodrug activation rates. The self-immolation profiles for the sterically tuned linker series (20a–b) reveal discernible, species-dependent differences prodrug stability. […] While the precise biochemical drivers remain unclear, this observation warrants further investigation beyond the scope of this work.
(§2) 1.2 Stability in Plasma and PBS via LCMS
(§3) Procaine (positive control) was purchased from Sigma-Aldrich. HPLC grade MeCN, MeOH, H2O, and FA were purchased from Fischer Scientific. Human plasma (cat. No. […]- […]
(§4) 0102242) were obtained from BIOIVT. DPBS 1X (no calcium, no magnesium, pH = 7.03) was purchased from Thermo Fischer Scientific. Stock solutions were prepared in 100% DMSO, and suitable dilutions of target analytes were prepared in 0.1% FA /MeCN for method development.
(§5) For PBS assay Gibco® Dulbecco’s phosphate-buffered saline (DPBS 1X, no calcium, no magnesium, pH = 7.03) was utilized. All experiments were performed in duplicate and results are presented as the average of two experimental replicates.
(§6) Procedure for Plasma Stability Assay
(§7) Test compounds and positive control (i.e. procaine) were dissolved in DMSO to make a 10 mM stock solution and subsequently diluted to 500 μM in 50% MeCN and PBS. This intermediate stock solution was prepared and added immediately prior to the start of each test compound experiment. Plasma was thawed at ambient temperature and aliquoted (663.0 μL) into 1.5 mL Eppendorf tubes. Plasma was incubated at 37 °C for 10 minutes in an incubator shaker at 150 rpm, and the reactions were initiated by addition of the test compound or positive control (4.0 µL, 3 μM). The spiked plasma samples were incubated at 37 °C. For designated time points, 75 µL aliquots were removed from the incubation mixture and immediately quenched in 150 µL of MeCN/0.1%FA with internal standard (ISTD, 2 µM d 5-7-ethoxy coumarin). […] The supernatant was transferred to an LC-MS vial and analyzed by LC/MS-MS. […]
(§8) LC–MS/MS analysis was performed using an Agilent 1260 Infinity II HPLC, coupled with an Agilent G6460 triple quadrupole mass spectrometer (Agilent Technologies, USA). All the data were acquired employing Agilent 6460 Quantitative Analysis data processing software. […]

Series [2] can be described thus: Stability in PBS at room temperature via HPLC (UV). The class given is physicochemical. To be noted: phosphate-buffered saline (DPBS). As for the experimental part: (§9) Stability studies were conducted in PBS and acetate buffer utilizing high performance liquid chromatography for potential drug storage considerations. […]
(§10) All experiments were performed in duplicate and results are presented as the average of two experimental replicates.
(§11) 1.1 Aqueous Stability in PBS and Acetate Buffer via HPLC
(§12) Material and Instrumentation
(§13) HPLC grade acetonitrile (MeCN) […] HPLC grade water (H 2O), and formic acid (FA) were purchased from Fisher Scientific.
(§14) Puradisc 4 mm PTFE (0.45 μm) syringe filters from Cytiva. Gibco ® Dulbecco’s phosphate-buffered saline (DPBS 1X, no calcium, no magnesium, pH = 7.03) and acetate buffer (pH = 5.0, 10 mM) were purchased directly from Thermo Fisher Scientific and Cytiva, respectively.
(§15) Aqueous stability experiments were performed on an Agilent 1100 HPLC equipped with an Agilent G1315B diode array detector, an Agilent G1316A heated column compartment, and a Zorbax Eclipse XDB-C18 (4.6 x 150 mm, 5 μm) column.
(§16) Procedure for Aqueous Stability Experiments
(§17) Each sample was first weighed out in two separate 2.0 mL vials using an analytical balance.
(§18) Unless otherwise specified, the test compounds were then dissolved in the aqueous media (PBS or acetate buffer) at a standard concentration of 1 mg/mL. All mixtures were subsequently sonicated for approximately 30 sec. […]
(§19) min), precipitates observed in sample solutions were filtered with a PTFE syringe filter prior to analysis. Immediately after sample preparation, injection by the HPLC autosampler was performed, which was recorded as the initial time point (t = 0 min). Solutions were then kept in the autosampler at RT and reinjected at designated intervals without additional filtration or sample modification. Remaining prodrug was defined by the area under the curve (AUC) at 254 nm. Aqueous stability was ascertained by calculating the percentage of the parent compound remaining after each time point. Linear regression of the time (x-axis) vs. ln(%remaining) (y-axis) plot afforded the rate constant k (slope = -k). Pseudo first-order half-lives were then calculated by the following equation: t1/2 = 0.693/k.

The nature of series [3]: PBS stability assay at 37 °C via LC-MS/MS. Format: physicochemical. To be noted: 37 °C; for half-life at 3 µM / remaining at 2 h, 3 µM: phosphate-buffered saline (DPBS); for half-life at 3 µM: pH 7.03, PBS; for remaining at 2 h, 3 µM: pH 7.03, read-out: % Remaining @ 2h, PBS, 37 °C (Tables S25, S26); for PBS, 37 °C %rem. at 2h (Table S23) / remaining at 2 h, 3 µM: PBS.
Series [4] in a line: Aqueous solubility by visual inspection in acetate buffer (pH 5). To be noted: sodium acetate buffer, pH 5, aqueous buffer, thermodynamic from solid.
Experimental: For the solubility assessment, acetate buffer (pH 5) was selected as the media of choice to ensure prodrug stability during analysis.
High aqueous solubility was determined by visual inspection of 5 mg solid material in 0.5 mL
sodium acetate buffer solution. This media was selected to ensure stability of prodrugs during
dissolution in 50 mg/mL aqueous media.
A short description of series [5]: Plasma stability assay at 37 °C via LC-MS/MS, human plasma.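 As to all read-outs here: prodrugs at 3 µM incubated in human plasma at 37 °C, intact prodrug quantified by LC-MS/MS over time, values are means of duplicate runs.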 The class given is in vitro ADME. As to conditions: for half-life at 3 µM: human, plasma.
A short description of series [6]: Stability in acetate buffer pH 5.0 at room temperature via HPLC (UV). The class given is physicochemical. As for the experimental part: as §9, §10, §11, §12, §13, §14, §15, §16, §17, §18, §19
A short description of series [7]: Plasma stability assay via LC-MS/MS, mouse plasma. Format: in vitro ADME. To be noted: read-out: t1/2 in mouse plasma (Table S20) (converted). On the procedure:
as §1, §2, §3, §4, §5, §6, §7, §8

[8] abbreviates: pH 7.03, DPBS pH 7.03, RT, 1 mg/mL, HPLC 254 nm, read-out: t1/2 in PBS buffer at RT (Tables S1-S4) (converted).
Setting [9] is: pH 7.03, PBS, rt, HPLC (UV), read-out: Half-life (t½) PBS rt (converted).
[10] abbreviates: pH 7.03, PBS, rt, read-out: t½: PBS, rt (Table S23) (converted).
[11] abbreviates: 3 µM, LC-MS/MS, read-out: t1/2 in PBS at 37 °C (Tables S14-S17) (converted).
Setting [12] is: LC-MS/MS, read-out: Half-life (t½) PBS 37°C (converted).
Setting [13] is: read-out: PBS, 37 °C t½ (Table S23) (converted).
Where [14] appears, read: read-out: t1/2 (h) PBS, 37 °C (Tables S25, S26) (converted).
Where [15] appears, read: 3 µM, LC-MS/MS, read-out: t1/2 in human plasma at 37 °C (Tables S10-S13, S18) (converted).
Where [16] appears, read: LC-MS/MS, read-out: Half-life (t½) Plasma 37°C (converted).
Setting [17] is: read-out: Plasma, 37 °C t½ (Table S23) (converted).
Setting [18] is: pH 5, acetate buffer pH 5.0, RT, 1 mg/mL, HPLC 254 nm, read-out: t1/2 in acetate buffer at RT (Tables S5-S8) (converted).
The mark [19] stands for this setting: pH 5, acetate buffer pH 5.0, rt, HPLC (UV), read-out: Half-life (t½) pH 5.0 rt (converted).
Setting [20] is: pH 5, acetate buffer pH 5.0, rt, read-out: t½: pH 5.0, rt (Table S23) (converted).

For the molecule `CNCCN(C(=O)O/N=C(\C)[C@H]1CC[C@H]2[C@@H]3CCC4=CC(=O)CC[C@]4(C)[C@H]3CC[C@]12C)C1CC1.O=C(O)C(F)(F)F` [20b], the half-life at 3 µM was 2.3 h in series [1]; 4.5 h in series [3] (setting [11]); 4.5 h in series [3] (setting [12]); 4.5 h in series [3] (setting [13]); 4.5 h in series [3] (setting [14]); 1.27 h in series [5] (setting [15]). Besides, the half-life at 3 µM is 1.27 h in series [5] (setting [16]), 1.27 h in series [5] (setting [17]) and 5.4 h in series [7]. For the same molecule, the half-life at 1 mg/mL in series [2] (setting [8]) is 28.16 ± 0.04 h; in series [2] (setting [9]), 28.2 h; in series [2] (setting [10]), 28.2 h; in series [6] (setting [18]), above 168 h; in series [6] (setting [19]), above 168 h; in series [6] (setting [20]) it was above 168 h. Further, in series [3], the “PBS, 37 °C %rem. at 2h (Table S23)” value worked out at 68%. Moreover, the fraction remaining at 2 h, 3 µM in series [3] is 68%. The molecule also displayed a solubility in series [4] above 10000 µg/mL. In series [5], the “Plasma, 37 °C %rem. at 2h (Table S23)” value was determined as 31%.
On to `C/C(=N\OC(=O)N(C)C[C@@H]1CCCN1)[C@H]1CC[C@H]2[C@@H]3CCC4=CC(=O)CC[C@]4(C)[C@H]3CC[C@]12C.O=C(O)C(F)(F)F` [20l], for which the half-life at 3 µM was 0.4 h in series [1]; 0.74 h in series [3] (setting [11]); 0.74 h in series [3] (setting [12]); 0.74 h in series [3] (setting [13]); 0.31 h in series [5] (setting [15]); 0.31 h in series [5] (setting [16]). In addition, the half-life at 3 µM in series [5] (setting [17]) was 0.31 h; in series [7], 0.4 h. The half-life at 1 mg/mL is 1.9 ± 0.12 h in series [2] (setting [8]); 1.9 h in series [2] (setting [9]); 1.9 h in series [2] (setting [10]); 175 h in series [6] (setting [18]); 175 h in series [6] (setting [19]); 175 h in series [6] (setting [20]). In addition, the “PBS, 37 °C %rem. at 2h (Table S23)” value in series [3] came to 8%. In addition, the solubility in series [4] was above 10000 µg/mL. Also, the “Plasma, 37 °C %rem. at 2h (Table S23)” value in series [5] worked out at 1%.
Consider `CNC1(CN(C)C(=O)O/N=C(\C)[C@H]2CC[C@H]3[C@@H]4CCC5=CC(=O)CC[C@]5(C)[C@H]4CC[C@]23C)CCC1` [20t], for which the half-life at 3 µM in series [1] was 0.46 h; in series [3] (setting [11]), 0.94 h; in series [3] (setting [12]), 0.94 h; in series [3] (setting [13]) it was 0.94 h; in series [5] (setting [15]), 0.44 h; in series [5] (setting [16]), 0.43 h. The half-life at 3 µM in series [5] (setting [17]) is 0.44 h; in series [7], 0.34 h. The half-life at 1 mg/mL was 10.5 h in series [2] (setting [8]); 10.5 h in series [2] (setting [9]); 10.5 h in series [2] (setting [10]); above 168 h in series [6] (setting [18]); above 168 h in series [6] (setting [19]); above 168 h in series [6] (setting [20]). The “PBS, 37 °C %rem. at 2h (Table S23)” value in series [3] was determined as 14%. For the same molecule, the solubility in series [4] was above 10000 µg/mL. Further, the “Plasma, 37 °C %rem. at 2h (Table S23)” value in series [5] came out at 4%.
Regarding `C/C(=N\OC(=O)N(C)C[C@@H]1CCN1)[C@H]1CC[C@H]2[C@@H]3CCC4=CC(=O)CC[C@]4(C)[C@H]3CC[C@]12C` [20o], the half-life at 1 mg/mL in series [2] (setting [8]) was 6.3 ± 0.09 h; in series [2] (setting [9]) it was 6.3 h; in series [2] (setting [10]) it was 6.3 h; in series [6] (setting [18]), above 168 h; in series [6] (setting [19]), above 168 h; in series [6] (setting [20]) it was above 168 h. For the same molecule, in series [3], the “PBS, 37 °C %rem. at 2h (Table S23)” value was 14%. The half-life at 3 µM is 0.9 h in series [3] (setting [11]); 0.9 h in series [3] (setting [12]); 0.9 h in series [3] (setting [13]); 0.29 h in series [5] (setting [15]); 0.29 h in series [5] (setting [16]); 0.29 h in series [5] (setting [17]). Besides, in series [4], the solubility is above 10000 µg/mL. Moreover, the “Plasma, 37 °C %rem. at 2h (Table S23)” value in series [5] is listed as 1%.
As for `CNCCN(CCCN1CCOCC1)C(=O)O/N=C(\C)[C@H]1CC[C@H]2[C@@H]3CCC4=CC(=O)CC[C@]4(C)[C@H]3CC[C@]12C.O=C(O)C(F)(F)F` [20i], the half-life at 1 mg/mL is 31.2 ± 1.48 h in series [2] (setting [8]), 31.2 h in series [2] (setting [10]), above 168 h in series [6] (setting [18]) and above 168 h in series [6] (setting [20]). Besides, in series [3], the “PBS, 37 °C %rem. at 2h (Table S23)” value was 77%. The half-life at 3 µM is 5.45 h in series [3] (setting [11]); 5.45 h in series [3] (setting [13]); 5.45 h in series [3] (setting [14]); 2.09 h in series [5] (setting [15]); 2.09 h in series [5] (setting [17]). In addition, in series [3], the fraction remaining at 2 h, 3 µM worked out at 77%. In series [4], the solubility was above 10000 µg/mL. For the same molecule, the “Plasma, 37 °C %rem. at 2h (Table S23)” value in series [5] amounted to 57%.

These data come from paper PMC12516379, “Rotamer-Controlled Self-Immolative Linkers Enable Tunable Release of Neurosteroid Oxime Prodrugs” (ACS Medicinal Chemistry Letters, 2025).
